From US12246076B2, “Radiolabeled compounds for in vivo imaging of gastrin-releasing peptide receptor (GRPR) and treatment of GRPR-related disorders” (PROVINCIAL HEALTH SERVICES AUTHORITY, priority 2022, dated 2025)
Numbered stars: 1 amine (or outer) side, 2 acyl side, 3 side chain; on linkers, the order of the positions; unused ones are H or OH. Square brackets hold non-standard residues; d marks the D form. Peptide text beside a SMILES is read from it. * marks the point of attachment. DOTA = O=C(O)CN1CCN(CC(=O)O)CCN(CC(=O)*)CCN(CC(=O)O)CC1; Leuψ(CH2N)ThzNH2 = CC(C)C[C@@H](CN1CSC[C@H]1C(N)=O)N*; X1 = O=C(CN1CCC(N[*:1])CC1)[*:2]

Legend:
[1] = Ex vivo biodistribution in PC-3 tumor-bearing mice; details: male, NRG, mouse, iv, total radioactivity, 1 h post-injection, mice bearing PC-3 tumor xenografts, n = 4
Experimental: (§1) All imaging and biodistribution studies were performed using male NOD.Cg-Rag1^tm1MoM II2rg^tm1WI/SzJ (NRG) mice and conducted according to the guidelines established by the Canadian Council on Animal Care and approved by Animal Ethics Committee of the University of British Columbia. For tumor inoculations, mice were anesthetized by inhalation with 2% isoflurane in oxygen and implanted subcutaneously with 5×10^6 PC-3 cells below the left shoulder. Imaging and biodistribution studies were performed only after tumors grew to 5-8 mm in diameter.
(§2) For PET/CT imaging studies, ˜3-4 MBq of the ^68Ga-labeled tracer was injected through the tail vein. Mice were allowed to recover and roam freely in the cages after injecting the tracer. At 45 min post-injection (p.i.), mice were sedated again and positioned on the scanner. First, a 10 min CT scan was conducted for localization and attenuation correction for reconstruction of PET images, before a 10 min PET image was acquired. Heating pads were used during the entire procedure to keep the mice warm. For ex vivo biodistribution studies, mice were injected with ˜1.5-3 MBq of the ^68Ga-labeled tracer. At 1 h p.i., mice were euthanized, blood was drawn from heart, and organs/tissues of interest were collected, rinsed with PBS, blotted dry, weighed, and counted using an automated gamma counter. The uptake in each organ/tissue was normalized to the injected dose and expressed as the percentage of the injected dose per gram of tissue (% ID/g).
(§3) All imaging and biodistribution studies were performed using male NOD.Cg-Rag1tm1Mom II2rgtm1WjI/SzJ (NRG) mice and conducted according to the guidelines established by the Canadian Council on Animal Care and approved by Animal Ethics Committee of the University of British Columbia. For tumor inoculations, mice were anesthetized by inhalation with 2% isoflurane in oxygen and implanted subcutaneously with 5×10^6 PC-3 cells below the left shoulder. Imaging and biodistribution studies were performed only after tumors grew to 5-8 mm in diameter.
(§4) For PET/CT imaging studies, ˜5 MBq of the ^68Ga-labeled tracer was injected through the tail vein. Mice were allowed to recover and roam freely in the cages after injecting the tracer. At 45 min post-injection (p.i.), mice were sedated again and positioned on the scanner. First, a 10 min CT scan was conducted for localization and attenuation correction for reconstruction of PET images, before a 10 min PET image was acquired. Heating pads were used during the entire procedure to keep the mice warm. For ex vivo biodistribution studies, mice were injected with ˜3 MBq of the 68Ga-labeled tracer. At 1 h p.i., mice were euthanized, blood was drawn from heart, and organs/tissues of interest were collected, rinsed with PBS, blotted dry, weighed, and counted using an automated gamma counter.

in vivo = details: male, NRG, mouse, iv, total radioactivity
Experimental: as §1, §2, §3, §4

[2] = PC-3 tumor, Biodistribution PC3 tumor Mean
[3] = adrenal, Biodistribution Adrenal Mean
[4] = bone, Biodistribution Bone Mean
[5] = brain, Biodistribution Brain Mean
[6] = heart, Biodistribution Heart Mean
[7] = kidneys, Biodistribution Kidneys Mean
[8] = liver, Biodistribution Liver Mean
[9] = lungs, Biodistribution Lungs Mean
[10] = muscle, Biodistribution Muscle Mean
[11] = pancreas, Biodistribution Pancreas Mean
[12] = seminal, Biodistribution Seminal Mean
[13] = small intestine, Biodistribution Small Intestine Mean
[14] = spleen, Biodistribution Spleen Mean
[15] = stomach, Biodistribution Stomach Mean
[16] = testes, Biodistribution Testes Mean
[17] = whole blood, Biodistribution Blood Mean
[18] = large intestine, Biodistribution Large Intestine Mean
[19] = Biodistribution Large Intestine Mean
[20] = Biodistribution Small Intestine Mean

| Compound | tissue uptake at 1 h [1, 2] [%ID/g] | tissue uptake at 1 h [1, 3] [%ID/g] | tissue uptake at 1 h [1, 4] [%ID/g] | tissue uptake at 1 h [1, 5] [%ID/g] | tissue uptake at 1 h ([1]; fat, Biodistribution Fat Mean) [%ID/g] | tissue uptake at 1 h [1, 6] [%ID/g] | tissue uptake at 1 h [1, 7] [%ID/g] | tissue uptake at 1 h [1, 8] [%ID/g] | tissue uptake at 1 h [1, 9] [%ID/g] | tissue uptake at 1 h [1, 10] [%ID/g] | tissue uptake at 1 h [1, 11] [%ID/g] | tissue uptake at 1 h [1, 12] [%ID/g] | tissue uptake at 1 h [1, 13] [%ID/g] | tissue uptake at 1 h [1, 14] [%ID/g] | tissue uptake at 1 h [1, 15] [%ID/g] | tissue uptake at 1 h [1, 16] [%ID/g] | tissue uptake at 1 h [1, 17] [%ID/g] | tissue uptake at 1 h [1, 18] [%ID/g] | also measured |
| --- | --- | --- | --- | --- | --- | --- | --- | --- | --- | --- | --- | --- | --- | --- | --- | --- | --- | --- | --- |
| CC(C)C[C@H](NC(=O)[C@H](Cc1c[nH]cn1)NC(=O)CNC(=O)[C@@H](NC(=O)[C@H](C)NC(=O)[C@H](Cc1c[nH]c2ccccc12)NC(=O)[C@H](CCC(N)=O)NC(=O)[C@@H](Cc1ccccc1)NC(=O)CN1CCC(NC(=O)CN2CCN(CC(=O)O)CCN(CC(=O)O)CCN(CC(=O)O)CC2)CC1)C(C)C)C(=O)N1CSC[C@H]1C(N)=O [^68Ga-LW01025, metal not drawn] | 6.2 | 0.54 | 0.24 | 0.03 | 0.09 | 0.13 | 2.37 | 0.29 | 0.34 | 0.13 | 1.28 | 0.06 | 0.56 | 0.23 | 0.54 | 0.16 | 0.34 | – | – |
| CC(C)C[C@H](NC(=O)[C@H](Cc1c[nH]cn1)NC(=O)CNC(=O)[C@@H](NC(=O)[C@H](C)NC(=O)[C@H](Cc1c[nH]c2ccccc12)NC(=O)[C@H](CCC(N)=O)NC(=O)[C@@H](Cc1ccc2ccccc2c1)NC(=O)CN1CCC(NC(=O)CN2CCN(CC(=O)O)CCN(CC(=O)O)CCN(CC(=O)O)CC2)CC1)C(C)C)C(=O)N1CSC[C@H]1C(N)=O [^68Ga-LW01029, metal not drawn] | 4.7 | 0.82 | 0.19 | 0.04 | 0.18 | 0.36 | 4.73 | 0.63 | 1.82 | 0.23 | 2.56 | 0.13 | 1.05 | 0.45 | 0.77 | 0.33 | 1.08 | 0.96 | – |
| CC(C)C[C@@H](CN1CSC[C@H]1C(N)=O)NC(=O)[C@H](Cc1c[nH]cn1)NC(=O)CNC(=O)[C@@H](NC(=O)[C@H](C)NC(=O)[C@H](Cc1c[nH]c2ccccc12)NC(=O)[C@H](CCC(N)=O)NC(=O)[C@@H](Cc1ccc2ccccc2c1)NC(=O)CN1CCC(NC(=O)CN2CCN(CC(=O)O)CCN(CC(=O)O)CCN(CC(=O)O)CC2)CC1)C(C)C [^68Ga-LW01059, metal not drawn] | 6.84 | 1.81 | 0.42 | 0.06 | 0.19 | 0.66 | 4.49 | 21.5 | 3.05 | 0.28 | 7.26 | – | 2.15 | 0.68 | 1.1 | 0.33 | 2.16 | 0.66 | – |
| CC(C)C[C@@H](CN1CSC[C@H]1C(N)=O)NC(=O)[C@H](Cc1c[nH]cn1)NC(=O)CNC(=O)[C@@H](NC(=O)[C@H](C)NC(=O)[C@H](Cc1c[nH]c2ccccc12)NC(=O)[C@H](Cc1c[nH]cn1)NC(=O)[C@@H](Cc1ccccc1)NC(=O)CN1CCC(NC(=O)CN2CCN(CC(=O)O)CCN(CC(=O)O)CCN(CC(=O)O)CC2)CC1)C(C)C [^68Ga-LW01102, metal not drawn] ({DOTA}-[X1][dF]HWAVGH-{Leuψ(CH2N)ThzNH2}) | 7.46 | 1.36 | 0.13 | 0.04 | 0.09 | 0.36 | 6.3 | 3.22 | 1.55 | 0.18 | 13.1 | 0.23 | 2.85 | 0.52 | 1.23 | 0.33 | 1.13 | 1.25 | – |
| CC(C)C[C@H](NC(=O)[C@H](Cc1c[nH]cn1)N(C)C(=O)CNC(=O)[C@@H](NC(=O)[C@H](C)NC(=O)[C@H](Cc1c[nH]c2ccccc12)NC(=O)[C@H](CCC(N)=O)NC(=O)[C@@H](Cc1ccccc1)NC(=O)CN1CCC(NC(=O)CN2CCN(CC(=O)O)CCN(CC(=O)O)CCN(CC(=O)O)CC2)CC1)C(C)C)C(=O)N1CSC[C@H]1C(N)=O [^68Ga-LW01107, metal not drawn] | – | 0.32 | – | – | – | – | – | – | – | 0.07 | – | 0.04 | – | – | – | – | – | – | tissue uptake at 1 h (in vivo; Biodistribution Blood Mean): 0.3 %ID/g; tissue uptake at 1 h (in vivo; Biodistribution Bone Mean): 0.06 %ID/g; tissue uptake at 1 h (in vivo; Biodistribution Brain Mean): 0.01 %ID/g; tissue uptake at 1 h (in vivo; Biodistribution Fat Mean): 0.05 %ID/g; tissue uptake at 1 h (in vivo; Biodistribution Heart Mean): 0.11 %ID/g; tissue uptake at 1 h (in vivo; Biodistribution Kidneys Mean): 1.88 %ID/g; tissue uptake at 1 h (in vivo; [19]): 0.18 %ID/g; tissue uptake at 1 h (in vivo; Biodistribution Liver Mean): 0.32 %ID/g; tissue uptake at 1 h (in vivo; Biodistribution Lungs Mean): 0.28 %ID/g; tissue uptake at 1 h (in vivo; Biodistribution PC3 tumor Mean): 7.05 %ID/g; tissue uptake at 1 h (in vivo; Biodistribution Pancreas Mean): 0.39 %ID/g; tissue uptake at 1 h (in vivo; [20]): 0.31 %ID/g; tissue uptake at 1 h (in vivo; Biodistribution Spleen Mean): 0.13 %ID/g; tissue uptake at 1 h (in vivo; Biodistribution Stomach Mean): 0.07 %ID/g; tissue uptake at 1 h (in vivo; Biodistribution Testes Mean): 0.1 %ID/g |
| CC(C)C[C@H](NC(=O)[C@H](Cc1c[nH]cn1)NC(=O)CNC(=O)[C@@H](NC(=O)[C@H](C)NC(=O)[C@H](Cc1c[nH]c2ccccc12)NC(=O)[C@H](CCC(N)=O)NC(=O)[C@@H](Cc1ccccc1)NC(=O)CN1CCC(NC(=O)CN2CCN(CC(=O)O)CCN(CC(=O)O)CCN(CC(=O)O)CC2)CC1)C(C)(C)C)C(=O)N1CSC[C@H]1C(N)=O [^68Ga-LW01108, metal not drawn] | – | – | – | – | – | – | – | – | – | – | – | 0.11 | – | – | – | – | – | – | tissue uptake at 1 h (in vivo; Biodistribution Adrenal Mean): 1.51 %ID/g; tissue uptake at 1 h (in vivo; Biodistribution Blood Mean): 0.59 %ID/g; tissue uptake at 1 h (in vivo; Biodistribution Bone Mean): 0.15 %ID/g; tissue uptake at 1 h (in vivo; Biodistribution Brain Mean): 0.02 %ID/g; tissue uptake at 1 h (in vivo; Biodistribution Fat Mean): 0.06 %ID/g; tissue uptake at 1 h (in vivo; Biodistribution Heart Mean): 0.18 %ID/g; tissue uptake at 1 h (in vivo; Biodistribution Kidneys Mean): 2.47 %ID/g; tissue uptake at 1 h (in vivo; [19]): 1.31 %ID/g; tissue uptake at 1 h (in vivo; Biodistribution Liver Mean): 0.35 %ID/g; tissue uptake at 1 h (in vivo; Biodistribution Lungs Mean): 0.49 %ID/g; tissue uptake at 1 h (in vivo; Biodistribution Muscle Mean): 0.17 %ID/g; tissue uptake at 1 h (in vivo; Biodistribution PC3 tumor Mean): 5.9 %ID/g; tissue uptake at 1 h (in vivo; Biodistribution Pancreas Mean): 9.32 %ID/g; tissue uptake at 1 h (in vivo; [20]): 2.29 %ID/g; tissue uptake at 1 h (in vivo; Biodistribution Spleen Mean): 0.4 %ID/g; tissue uptake at 1 h (in vivo; Biodistribution Stomach Mean): 0.89 %ID/g; tissue uptake at 1 h (in vivo; Biodistribution Testes Mean): 0.16 %ID/g |
| CC(C)C[C@@H](CN1CCC[C@H]1C(N)=O)NC(=O)[C@H](Cc1c[nH]cn1)NC(=O)CN(C)C(=O)[C@@H](NC(=O)[C@H](C)NC(=O)[C@H](Cc1c[nH]c2ccccc12)NC(=O)[C@H](CCC(N)=O)NC(=O)[C@@H](Cc1ccccc1)NC(=O)CN1CCC(NC(=O)CN2CCN(CC(=O)O)CCN(CC(=O)O)CCN(CC(=O)O)CC2)CC1)C(C)C [^68Ga-LW02045, metal not drawn] | 12.4 | 0.44 | 0.07 | 0.02 | 0.03 | 0.14 | 2.54 | 0.37 | 1.08 | 0.1 | 1.37 | 3.8 | 0.48 | 0.18 | 0.35 | 0.12 | 0.43 | 0.34 | – |
